According to patent US8003811B2, “Nitric oxide donor compounds” (Nicox S.A., priority 2008, dated 2011):

What was measured:
[1] = tested on: Human Embryonic Kidney (HEK293) cell; experiment: cGMP accumulation assay; format: cell-based; settings: intracellular cGMP, HEK293 cells, 30 min, with L-NAME, IBMX 100 μM and BAY 41-2272 1 μM
Protocol: The ability of the compounds of the invention to increase intracellular cGMP in comparison to vehicle was tested in vitro in Human Embryonic Kidney (HEK293) cell preparations. The method followed was as that reported in literature with minor modifications (Ongini et al., PNAS 2004; 101(22):8497-502. Ronchetti et al., Eur J. Pharmacol. 2006; 532(1-2):162-9).
Briefly, HEK293 cells were washed once with Hank's Balance Salt Solution (HESS) supplemented with HEPES (10 mM), MgCl2 (5 mM) and 0.05% ascorbic acid. Then they were pre-incubated for 20 min with a nitric oxide synthase inhibitor, N-nitro-L-arginine methyl ester (L-NAME) (300 μM) so to lower endogenous NO production. The cells were then exposed for 30 min to either vehicle (DMSO 1%) or increasing concentrations of test compounds (up to 100 μM) in presence of the phosphodiesterase inhibitor, 3-isobutyl-1-methylxanthine (IBMX, 100 μM) and the NO-independent activator/modulator of soluble guanylyl-cyclase, BAY 41-2272 (1 μM). The reaction was ended by the removal of the incubating buffer and the addition of 50 μl/well of 100% ice-cold ethanol. The plate was then dried under hot air steam and the cell residues dissolved, extracted and analysed using commercially available cyclic GMP enzyme immunoassay kit (Cayman Chemical, Ann Arbor, Mich., U.S.A.). Data obtained with the compounds of the present invention, expressed as % of vehicle at their respective maximal concentration (100 μM), are reported in Table 2.

[2] = tested on: conscious spontaneously hypertensive rats (SHRs); experiment: Assay for antihypertensive activity (in vivo), telemetry; parameters: species or system rat; settings: for Δ SBP in SHR (mmHg) 2-6 hrs / Δ SBP in SHR (mmHg) 21-24 hrs / Δ SBP in SHR (mmHg) 25-48 hrs / Δ SBP in SHR (mmHg) 12 hrs: delta versus own baseline
Protocol: Assay for Antihypertensive Activity (In Vivo)
The ability of the compounds of the invention to decrease blood pressure was evaluated in conscious spontaneously hypertensive rats (SHRs). SHRs (250-300 g) received a single oral dose of tested compounds. Systolic blood pressure (SBP) and heart rate were monitored by telemetry for […] after dosing. SBP was evaluated before (baseline) and at different time points (i.e. 2-6, 12, 21-24, 25-48 hours) following treatment by oral administration of the compounds. The data were processed both as the absolute value or as a delta between the absolute value and its own baseline.
The Dataquest IV telemetry system (Data Sciences International) was used for measurement of systolic pressure, diastolic pressure, mean arterial pressure, heart rate, and motor activity. The monitoring system consists of a transmitter (radio frequency transducer model TA11PA), receiver panel, consolidation matrix, and personal computer with accompanying software. Before the device was implanted, calibrations were verified to be accurate within ±3 mmHg. Rats were anesthetized with ketamine/xylazine/acepromazine, and the flexible catheter of the transmitter was surgically secured in the abdominal aorta just below the renal arteries. The transmitter was sutured subcutaneously. Rats were housed in individual cages after the operation. Each cage was placed over the receiver panel that was connected to the personal computer for data acquisition. The rats were unrestrained and free to move within their cages. Hemodynamic data were sampled every 2 minutes for 10 seconds.

[3] = tested on: isolated rabbit thoracic aorta preparations; experiment: Assay on vascular tone: vasorelaxation in isolated aortic rings precontracted with noradrenaline; format: cell-based; settings: for EC50: Oryctolagus cuniculus, read-out: EC50 (μM) ± sem
Protocol: The ability of the compounds of the invention to induce vasorelaxation in comparison to precursor compounds, was tested in vitro in isolated rabbit thoracic aorta preparations (Wanstall J. C. et al., Br. J. Pharmacol., 134:463-472, 2001). Male New Zealand rabbits were anaesthetized with thiopental-Na (50 mg/kg, iv), sacrificed by exsanguinations and then the thorax was opened and the aorta dissected. Aortic ring preparations (4 mm in length) were set up in physiological salt solution (PSS) at 37° C. in small organ chambers (5 ml). The composition of PSS was (mM): NaCl 130, NaHCO3 14.9, KH2PO4 1.2, MgSO4 1.2, HEPES 10, […] (95% O2/5% CO2; pH 7.4). Each ring was mounted under 2 g passive tension. Isometric tension was recorded with a Grass transducer (Grass FT03) attached to a BIOPAC MP150 System. Preparations were allowed to equilibrate for 1 h, and then contracted submaximally with noradrenaline (NA, 1 μM) and, when the contraction was stable, acetylcholine (ACh, 10 μM) was added. A relaxant response to ACh indicated the presence of a functional endothelium. […] When a stable precontraction was reached, a cumulative concentration-response curve to either of the vasorelaxant agents was obtained in the presence of a functional endothelium. Each arterial ring was exposed to only one combination of inhibitor and vasorelaxant. Moreover, the effect of the soluble guanylyl cyclase inhibitor ODQ (1-H-(1,2,4)-oxadiazol(4,3-a)quinoxalin-1-one) on vasorelaxation elicited by the compounds was examined preincubating the aortic rings with ODQ (10 μM) for 20 min.
Responses to relaxing agents are expressed as a percentage of residual contraction and plotted against concentration of test compound. EC50 values (where EC50 is the concentration producing 50% of the maximum relaxation to the test compound) were interpolated from these plots. During the experimental period, the plateau obtained with NA was stable without significant spontaneous loss of contraction in the aortic rings.
Furthermore, in experiments performed in the presence of ODQ (10 μM), the vasorelaxant responses to tested compounds were inhibited.

[4] = vasorelaxation of rabbit aortic rings precontracted with noradrenaline 1 μM, functional endothelium

SMILES | % of vehicle (mean ± sem at 100 μM) [1] | EC50 [3, 4] | further results
O=C(CCCC(CO[N+](=O)[O-])O[N+](=O)[O-])O[C@@H]1CO[C@H]2[C@@H]1OC[C@H]2O (stereo partly drawn) [Example 1, (3R,3aR,6R,6aR)-6-hydroxyhexahydrofuro[3,2-b]furan-3-yl 5,6-bis(nitrooxy)hexanoate] | 1029.6 ± 80.2 % of vehicle | 0.11 ± 0.03 µM | BP lowering compared to precursor compound (isomannide) ([2]; SHR, single oral dose, result in words): BP lowering with extended peak effect and duration of action; Δ SBP in SHR (mmHg) 2-6 hrs ([2]; single oral dose 4.4 mpk): −13 mmHg; Δ SBP in SHR (mmHg) 21-24 hrs ([2]; single oral dose 4.4 mpk): −20 mmHg; Δ SBP in SHR (mmHg) 25-48 hrs ([2]; single oral dose 4.4 mpk): −16 mmHg; Δ SBP in SHR (mmHg) 12 hrs ([2]; single oral dose 4.4 mpk): −16 mmHg
O=C(CCCCCO[N+](=O)[O-])O[C@@H]1CO[C@H]2[C@@H]1OC[C@H]2OC(=O)CCCCCO[N+](=O)[O-] [Example 2, (3R,3aR,6R,6aR)-hexahydrofuro[3,2-b]furan-3,6-diyl bis(6-(nitrooxy)hexanoate)] | 1082.67 ± 163.4 % of vehicle | 3.1 ± 0.9 µM | 
O=C(CCCCCO[N+](=O)[O-])O[C@@H]1CO[C@H]2[C@@H]1OC[C@H]2O [Example 3, (3R,3aR,6R,6aR)-6-hydroxyhexahydrofuro[3,2-b]furan-3-yl 6-(nitrooxy)hexanoate] | 677.83 ± 79.6 % of vehicle | 2.5 ± 0.6 µM | 
O=C(CCC[C@@H](CO[N+](=O)[O-])O[N+](=O)[O-])O[C@@H]1CO[C@H]2[C@@H]1OC[C@H]2O [Example 4] | 986.3 ± 90.0^ % of vehicle | 0.11 ± 0.02 µM | 
O=C(CCC[C@H](CO[N+](=O)[O-])O[N+](=O)[O-])O[C@@H]1CO[C@H]2[C@@H]1OC[C@H]2O [Example 5, (R)-((3R,3aR,6R,6aR)-6-hydroxyhexahydrofuro[3,2-b]furan-3-yl) 5,6-bis(nitrooxy)hexanoate] | 668 ± 64.7 % of vehicle |  | 
O=[N+]([O-])OCC(CCCCO[C@@H]1CO[C@H]2[C@@H]1OC[C@H]2O)O[N+](=O)[O-] (stereo partly drawn) [Example 6, 6-((3R,3aR,6R,6aR)-6-hydroxyhexahydrofuro[3,2-b]furan-3-yloxy)hexane-1,2-diyl dinitrate] | 1620 ± 205.0 % of vehicle | 0.91 ± 0.33 µM | 
O=C(O[C@@H]1CO[C@H]2[C@@H]1OC[C@H]2O)N1CCC(O[N+](=O)[O-])CC1 [Example 7, (3R,3aR,6R,6aR)-6-hydroxyhexahydrofuro[3,2-b]furan-3-yl 4-(nitrooxy)piperidine-1-carboxylate] |  | 4.4 ± 1.9 µM | 
CC(C)(CCOC(=O)O[C@@H]1CO[C@H]2[C@@H]1OC[C@H]2O)CC(CO[N+](=O)[O-])O[N+](=O)[O-] (stereo partly drawn) [Example 8, 3,3-dimethyl-5,6-bis(nitrooxy)hexyl (3R,3aR,6R,6aR)-6-hydroxyhexahydrofuro[3,2-b]furan-3-yl carbonate] | 564 ± 59.0 % of vehicle | 0.06 ± 0.01 µM | 
O=C(CCOCC(CO[N+](=O)[O-])O[N+](=O)[O-])O[C@@H]1CO[C@H]2[C@@H]1OC[C@H]2O (stereo partly drawn) [Example 13, (3R,3aR,6R,6aR)-6-hydroxyhexahydrofuro[3,2-b]furan-3-yl 3-(2,3-bis(nitrooxy)propoxy)propanoate] | 683 ± 86.3 % of vehicle | 0.1 ± 0.03 µM | 
O[C@@H]1CO[C@H]2[C@@H]1OC[C@H]2O [Isomannide, 1,4:3,6-dianhydro-D-mannitol, reference compound] |  |  | Δ SBP in SHR (mmHg) 2-6 hrs ([2]; single oral dose 2.4 mpk): −3 mmHg; Δ SBP in SHR (mmHg) 21-24 hrs ([2]; single oral dose 2.4 mpk): −6 mmHg; Δ SBP in SHR (mmHg) 25-48 hrs ([2]; single oral dose 2.4 mpk): −6 mmHg; Δ SBP in SHR (mmHg) 12 hrs ([2]; single oral dose 2.4 mpk): −9 mmHg; relaxation (concentration-response curve) ([3]; rabbit aortic rings precontracted with noradrenaline, result in words): does not produce relaxation at any of the concentration tested; EC50 (μM) ± sem [3, 4]: no effect
